Experimental data taken from paper PMC7556816, “Structural and mechanistic analysis of ATPase inhibitors targeting mycobacterial DNA gyrase” (Journal of Antimicrobial Chemotherapy, 2020).

Tested on: M. tuberculosis gyrase, GyrB Arg141 mutants
Type: biochemical, Mycobacterium tuberculosis

CO[C@@H]1[C@@H](OC(N)=O)[C@@H](O)[C@H](Oc2ccc3c(O)c(NC(=O)c4ccc(O)c(CC=C(C)C)c4)c(=O)oc3c2C)OC1(C)C [novobiocin, reference compound]
inhibition of supercoiling of Arg141 mutant gyrase: at least partially inhibited

CNc1cc(F)cc2c1[nH]c1nc(Oc3cnc(C)nc3)nc(N3C[C@@H]4[C@@H](N)[C@@H]4C3)c12 [Redx03863]
inhibition of supercoiling of Arg141 mutant gyrase: susceptible to inhibition
